Test system: SARS-CoV-2
Assay: microbe, parasite or virus in culture
Settings: Severe acute respiratory syndrome coronavirus 2, Vero C1008, 48 h

Structure (SMILES) | IC50 | IC50 (read-out: pIC50 (converted))
C[C@]12CCC(=O)C(O)=C1CC[C@@H]1[C@@H]2CC[C@]2(C)C(=O)CC[C@@H]12 [FORMESTANE] | > 20 µM | > 20 µM
COc1ccc(-c2coc3cc(O)ccc3c2=O)cc1 [FORMONONETIN] | > 20 µM | > 20 µM
O=c1[nH]cnc2c([C@@H]3N[C@H](CO)[C@@H](O)[C@H]3O)c[nH]c12 [FORODESINE] | > 20 µM | > 20 µM
CC(C)CN(C[C@@H](OP(=O)(O)O)[C@H](Cc1ccccc1)NC(=O)O[C@H]1CCOC1)S(=O)(=O)c1ccc(N)cc1 [FOSAMPRENAVIR] | > 20 µM | > 20 µM
O=C(O)P(=O)(O)O [FOSCARNET] | > 20 µM | > 20 µM
Cc1ncccc1NC(=O)c1ccc2c(c1)CC[C@@H]1C[C@@](OP(=O)(O)O)(C(F)(F)F)CC[C@@]21Cc1ccccc1 [FOSDAGROCORAT] | > 20 µM | > 20 µM
C[C@@H]1O[C@@H]1P(=O)(O)O [FOSFOMYCIN] | > 20 µM | > 20 µM
O=C(O)CP(=O)(O)O [FOSFONET] | > 20 µM | > 20 µM
O=C(O)c1ccccc1OP(=O)(O)O [FOSFOSAL] | > 20 µM | > 20 µM
O=C(O)[C@@H]1C[C@@H](C2CCCCC2)CN1C(=O)CP(=O)(O)CCCCc1ccccc1 [FOSINOPRILAT] | > 20 µM | > 20 µM
COc1cc(Nc2ncc(F)c(Nc3ccc4c(n3)N(COP(=O)(O)O)C(=O)C(C)(C)O4)n2)cc(OC)c1OC [FOSTAMATINIB] | > 20 µM | > 20 µM
CCOP(=O)(Cc1ccc(-c2nc3ccccc3s2)cc1)OCC [FOSTEDIL] | > 20 µM | > 20 µM
COc1cnc(-n2cnc(C)n2)c2c1c(C(=O)C(=O)N1CCN(C(=O)c3ccccc3)CC1)cn2COP(=O)(O)O [FOSTEMSAVIR] | > 20 µM | > 20 µM
CCCc1c(OCC(O)COc2ccc3c(=O)cc(C(=O)O)oc3c2CCC)ccc(C(C)=O)c1O (centres undefined) [FPL-55712] | > 20 µM | > 20 µM
NC[C@@H]1O[C@H](O[C@H]2[C@@H](O)[C@H](O[C@@H]3[C@@H](O)[C@H](N)C[C@H](N)[C@H]3O[C@H]3O[C@H](CN)[C@@H](O)[C@H](O)[C@H]3N)O[C@@H]2CO)[C@H](N)[C@@H](O)[C@@H]1O [FRAMYCETIN] | > 20 µM | > 20 µM
O=C(CO)[C@@H](O)[C@H](O)[C@H](O)CO [FRUCTOSE] | > 20 µM | > 20 µM
Cc1cccc(C)c1NC(=O)c1ccccc1C(=O)O [FTAXILIDE] | > 20 µM | > 20 µM
N[C@@H](CSCCCO)C(=O)O [FUDOSTEINE] | > 20 µM | > 20 µM
C[C@]12CC[C@@H]3c4ccc(O)cc4C[C@@H](CCCCCCCCC[S+]([O-])CCCC(F)(F)C(F)(F)F)[C@H]3[C@@H]1CC[C@@H]2O (some centres undefined) [FULVESTRANT] | > 20 µM | > 20 µM
O=C1OC(CN2CCOCC2)CN1/N=C/c1ccc([N+](=O)[O-])o1 (centres undefined) [FURALTADONE] | > 20 µM | > 20 µM
CC(C(=O)O)c1cccc2c(-c3ccccc3)coc12 (centres undefined) [FURAPROFEN] | > 20 µM | > 20 µM

Structure (SMILES) | IC50 | IC50 (read-out: pIC50 (converted))
O=C(O)c1cc2cc(Cc3cccnc3)ccc2o1 [FUREGRELATE] | > 20 µM | > 20 µM
NS(=O)(=O)c1cc(C(=O)O)c(NCc2ccco2)cc1Cl [FUROSEMIDE] | > 20 µM | > 20 µM
CC(=O)O[C@H]1C[C@@]2(C)[C@@H](C[C@@H](O)[C@H]3[C@@]4(C)CC[C@@H](O)[C@@H](C)[C@@H]4CC[C@@]32C)/C1=C(\CCC=C(C)C)C(=O)O [FUSIDIC ACID] | > 20 µM | > 20 µM
C=CC(=O)N1CC[C@H](n2nc(C#Cc3cc(OC)cc(OC)c3)c3c(N)ncnc32)C1 [FUTIBATINIB] | > 20 µM | > 20 µM
NCC1(CC(=O)O)CCCCC1 [GABAPENTIN] | > 20 µM | > 20 µM
COc1ccc(-c2ccc(=N)n(CCCC(=O)O)n2)cc1 [GABAZINE] | > 20 µM | > 20 µM
CCOC(=O)c1ccc(OC(=O)CCCCCNC(=N)N)cc1 [GABEXATE] | > 20 µM | > 20 µM
Oc1noc2c1CCNC2 [GABOXADOL] | > 20 µM | > 20 µM
COc1ccc2c3c1O[C@H]1C[C@@H](O)C=C[C@@]31CCN(C)C2 [GALANTAMINE] | > 20 µM | > 20 µM
C[C@]12CC[C@H](O)CC1=CC[C@@H]1[C@@H]2CC[C@]2(C)C(n3cnc4ccccc43)=CC[C@@H]12 [GALETERONE] | > 20 µM | > 20 µM
O=C(O)c1cc(O)c(O)c(O)c1 [GALLIC ACID] | > 20 µM | > 20 µM
O=C(O[C@@H]1Cc2c(O)cc(O)cc2O[C@H]1c1cc(O)c(O)c(O)c1)c1cc(O)c(O)c(O)c1 [GALLOCATECHIN GALLATE] | > 20 µM | > 20 µM
COc1ccc(CCN(C)CCCC(C#N)(c2cc(OC)c(OC)c(OC)c2)C(C)C)cc1OC (centres undefined) [GALLOPAMIL] | > 20 µM | > 20 µM
Cc1cccc(-c2nn3c(c2-c2ccnc4ccc(C(N)=O)cc24)CCC3)n1 [GALUNISERTIB] | > 20 µM | > 20 µM
CC(C)=CCC[C@]1(C)C=Cc2c(O)c3c(c(CC=C(C)C)c2O1)O[C@]12C(=C[C@@H]4C[C@H]1C(C)(C)O[C@@]2(C/C=C(/C)C(=O)O)C4=O)C3=O [GAMBOGIC ACID] | > 20 µM | > 20 µM
CN(C)CCC(c1ccccc1)C1CCCCC1 (centres undefined) [GAMFEXINE] | > 20 µM | > 20 µM
NCC(O)CC(=O)O (stereo not drawn) [GAMMA-AMINO-BETA-HYDROXYBUTYRIC ACID] | > 20 µM | > 20 µM
OC[C@H]1O[C@@H]2O[C@H]3[C@H](O)[C@@H](O)[C@@H](O[C@H]4[C@H](O)[C@@H](O)[C@@H](O[C@H]5[C@H](O)[C@@H](O)[C@@H](O[C@H]6[C@H](O)[C@@H](O)[C@@H](O[C@H]7[C@H](O)[C@@H](O)[C@@H](O[C@H]8[C@H](O)[C@@H](O)[C@@H](O[C@H]9[C@H](O)[C@@H](O)[C@@H](O[C@H]1[C@H](O)[C@H]2O)O[C@@H]9CO)O[C@@H]8CO)O[C@@H]7CO)O[C@@H]6CO)O[C@@H]5CO)O[C@@H]4CO)O[C@@H]3CO [GAMMA-CYCLODEXTRIN] | > 20 µM | > 20 µM
Nc1nc2c(ncn2COC(CO)CO)c(=O)[nH]1 [GANCICLOVIR] | > 20 µM | > 20 µM
CC(C)c1cc(-c2n[nH]c(=O)n2-c2ccc3c(ccn3C)c2)c(O)cc1O [GANETESPIB] | > 20 µM | > 20 µM
COc1c(N2CCNC(C)C2)c(F)cc2c(=O)c(C(=O)O)cn(C3CC3)c12 (centres undefined) [GATIFLOXACIN] | > 20 µM | > 20 µM

Structure (SMILES) | IC50 | IC50 (read-out: pIC50 (converted))
CC(=O)O[C@@H]1C[C@H]2C(C)(C)C(=O)C=C[C@]2(C)[C@H]2CC[C@@]3(C)[C@H](c4ccoc4)OC(=O)[C@H]4O[C@]43[C@@]21C [GEDUNIN] | > 20 µM | > 20 µM
C=C[C@]12CN(C)[C@@H]3[C@H]4CO[C@H](C[C@H]41)[C@]1(C(=O)Nc4ccccc41)[C@@H]32 [GELSEMINE] | > 20 µM | > 20 µM
CC(C)(CO)CCCCCCC(C)(C)CO [GEMCADIOL] | > 20 µM | > 20 µM
Nc1ccn([C@@H]2O[C@H](CO)[C@@H](O)C2(F)F)c(=O)n1 [GEMCITABINE] | > 20 µM | > 20 µM
Cc1ccc(C)c(OCCCC(C)(C)C(=O)O)c1 [GEMFIBROZIL] | > 20 µM | > 20 µM
O=c1c(-c2ccc(O)cc2)coc2cc(O)cc(O)c12 [GENISTEIN] | > 20 µM | > 20 µM
CN[C@@H]1[C@@H](O)[C@@H](O[C@@H]2[C@@H](O)[C@H](O[C@H]3O[C@H]([C@@H](C)NC)CC[C@H]3N)[C@@H](N)C[C@H]2N)OC[C@]1(C)O [GENTAMICIN C1] | > 20 µM | > 20 µM
CN(C)c1ccc(C(=C2C=CC(=[N+](C)C)C=C2)c2ccc(N(C)C)cc2)cc1 [GENTIAN VIOLET] | > 20 µM | > 20 µM
O=C(O)c1cc(O)ccc1O [GENTISIC ACID] | > 20 µM | > 20 µM
C[C@H](N)Cc1cccc(O)c1 [GEPEFRINE] | > 20 µM | > 20 µM
CC1(C)CC(=O)N(CCCCN2CCN(c3ncccn3)CC2)C(=O)C1 [GEPIRONE] | > 20 µM | > 20 µM
C#C[C@]1(O)C=C[C@H]2[C@@H]3CCC4=CC(=O)CC[C@@H]4[C@H]3CC[C@@]21CC [GESTODENE] | > 20 µM | > 20 µM
C#C[C@]1(O)CC[C@H]2[C@@H]3CCC4=CC(=O)CCC4=C3C=C[C@@]21CC [GESTRINONE] | > 20 µM | > 20 µM
Fc1ccc2[nH]c3c(c2c1)CN(CCCc1cccnc1)CC3 [GEVOTROLINE] | > 20 µM | > 20 µM
C=C1C[C@]23C[C@@]1(O)CC[C@H]2[C@@]12C=C[C@H](O)[C@](C)(C(=O)O1)[C@H]2[C@@H]3C(=O)O [GIBBERELLIN GA3] | > 20 µM | > 20 µM
CCc1nc(C(N)=O)c(Nc2ccc(N3CCC(N4CCN(C)CC4)CC3)c(OC)c2)nc1NC1CCOCC1 [GILTERITINIB] | > 20 µM | > 20 µM
C[C@@H]1C(=O)O[C@H]2C[C@@]34[C@H]5C[C@@H](C(C)(C)C)[C@]36[C@@H](OC(=O)[C@@H]6O)O[C@@]4(C(=O)O5)[C@]21O [GINKGOLIDE A] | > 20 µM | > 20 µM
C[C@H]1O[C@@H](O[C@H]2[C@@H](O)C[C@H](O[C@H]3[C@@H](O)C[C@H](O[C@H]4CC[C@@]5(C)[C@H](CC[C@@H]6[C@@H]5CC[C@]5(C)[C@@H](C7=CC(=O)OC7)[C@@H](O)C[C@]65O)C4)O[C@@H]3C)O[C@@H]2C)C[C@H](O)[C@@H]1O [GITOXIN] | > 20 µM | > 20 µM
O=C(OCC(O)CO)c1ccccc1Nc1ccnc2cc(Cl)ccc12 (centres undefined) [GLAFENINE] | > 20 µM | > 20 µM
CC(C)c1nc(-c2ccccc2)cc(-c2ccc(F)cc2)c1/C=C/[C@@H]1C[C@@H](O)CC(=O)O1 [GLENVASTATIN] | > 20 µM | > 20 µM
